Experimental data published in patent US20080280879A1, “SUBSTITUTED HETEROCYCLIC DERIVATIVES AND THEIR PHARMACEUTICAL USE AND COMPOSITIONS” (priority 2007, published 2008).
≈ marks a conversion by molar mass, not a printed value.

How the values were obtained:
Type in all cases: cell-based, Staphylococcus aureus
Staph aureus 2812 = experiment: MIC, microtiter broth dilution (CLSI M7-A7), Assay 1, Table 12 column E, no serum; settings: for MIC, column E: Staph aureus 2812, Assay 1, no serum; for MIC: Staphylococcus aureus, 2812, Staph aureus 2812, Assay 1, no serum
Protocol: (§1) The assays described herein include a panel of bacterial isolates of Staphylococcus aureus. Assay 1 comprises the strains noted in Columns A through E, and Assay 2 comprises the strains noted in Columns F through H. The assays are performed in microtiter trays according to Methods for Dilution Antimicrobial Susceptibility Tests for Bacteria that Grow Aerobically; Approved Standard-7th edition (M7-A7) and interpreted according to the Performance Standards for Antimicrobial Susceptibility Testing; 16th Informational Supplement (M100-S16) published by Clinical Laboratory Standards Institute (CLSI). The antibacterial activity is presented in the form of a minimum inhibitory concentration (MIC) value in μg/ml format. The MIC value represents the lowest concentration of drug measured which prevented macroscopically visible growth under the conditions and specific doses tested. The compounds were initially dissolved in DMSO as 30 mM stocks and diluted accordingly to adjust to a concentration of 10 mg/ml or the compounds were dissolved in DMSO at a concentration of 10 mg/ml. For assessment of activity in the presence of human serum, S. aureus 1146 and S. aureus 1031 were inoculated into Mueller-Hinton Broth with 50% pooled inactivated human serum. In some cases, compounds were tested more than once in a particular assay. Where noted, the MIC value shown in Table 12 represents the geometric mean of the data from multiple runs.
(§2) It should be understood that the data in columns A-H represents MIC data in μg/ml and the notation “<=” means ‘less than or equal to’.

Staph aureus 1095 MRSA = experiment: MIC, microtiter broth dilution (CLSI M7-A7), Assay 1, Table 12 column A, no serum; settings: Assay 1, no serum; for MIC: Staphylococcus aureus, MRSA
Protocol: as §1, §2

Staph aureus 2811 = experiment: MIC, microtiter broth dilution (CLSI M7-A7), Assay 1, Table 12 column D, no serum; settings: for MIC, column D: Staph aureus 2811, Assay 1, no serum; for MIC: Staphylococcus aureus, 2811, Staph aureus 2811, Assay 1, no serum
Protocol: as §1, §2

Staph aureus 1146 [1] = experiment: MIC, microtiter broth dilution (CLSI M7-A7), Assay 1, Table 12 column B, no serum; settings: for MIC, column B: Staph aureus 1146, Assay 1, no serum; for MIC: Staphylococcus aureus, 1146, Staph aureus 1146, Assay 1, no serum
Protocol: as §1, §2

Staph aureus 1146 [2] = experiment: MIC in Mueller-Hinton Broth with 50% pooled inactivated human serum, Assay 1, Table 12; settings: for MIC, column C: Staph aureus 1146, Assay 1, 50% human serum; for MIC: Staphylococcus aureus, 1146, Staph aureus 1146, Assay 1, 50% human serum, read-out: MIC, column C
Protocol: as §1, §2

| MIC, column E (Staph aureus 2812) [µg/mL] | MIC, column A (Staph aureus 1095 MRSA) [µg/mL] | MIC, column D (Staph aureus 2811) [µg/mL] | MIC, column B (Staph aureus 1146 [1]) [µg/mL] | MIC, column C (Staph aureus 1146 [2]) [µg/mL] | MIC (Staph aureus 2812) [µg/mL] | MIC (Staph aureus 1095 MRSA) [µg/mL] | MIC (Staph aureus 2811) [µg/mL] | MIC (Staph aureus 1146 [1]) [µg/mL] | MIC (Staph aureus 1146 [2]) [µg/mL] | Compound |
| --- | --- | --- | --- | --- | --- | --- | --- | --- | --- | --- |
| 2 (≈ 3.94 µM) | 4 (≈ 7.88 µM) | 2 (≈ 3.94 µM) | 2 (≈ 3.94 µM) | 4 (≈ 7.88 µM) |  |  |  |  |  | COc1ccc2ncc(F)c([C@@H](O)CNC3(C(=O)O)CCCN(C4CC(c5ccccc5)C4)CC3)c2c1 (single isomer, unassigned) [Example 150] |
|  |  |  |  |  | 1 (≈ 2.05 µM) | 2 (≈ 4.09 µM) | 2 (≈ 4.09 µM) | 1 (≈ 2.05 µM) | 16 (≈ 32.7 µM) | COc1ccc2nccc(C(O)CC[C@@H]3CCN(C4CC(c5ccc(C)cc5)C4)C[C@@H]3C(=O)O)c2c1 (stereo partly drawn) [Example 6, (3R,4R)-4-[3-hydroxy-3-(6-methoxyquinolin-4-yl)propyl]-1-[3-(4-methylphenyl)cyclobutyl]piperidine-3-carboxylic acid] |
|  |  |  |  |  | 0.125 (≈ 0.254 µM) | 0.25 (≈ 0.508 µM) | 0.125 (≈ 0.254 µM) | 0.125 (≈ 0.254 µM) | 1 (≈ 2.03 µM) | COc1ccc2nccc(C(O)CC[C@@H]3CCN(C4CC(c5ccccc5F)C4)C[C@@H]3C(=O)O)c2c1 (stereo partly drawn) [Example 7, (3R,4R)-1-[3-(2-fluorophenyl)cyclobutyl]-4-[3-hydroxy-3-(6-methoxyquinolin-4-yl)propyl] piperidine-3-carboxylic acid] |
|  |  |  |  |  | 0.25 (≈ 0.51 µM) | 0.25 (≈ 0.51 µM) | 0.125 (≈ 0.255 µM) | 0.25 (≈ 0.51 µM) | 8 (≈ 16.3 µM) | COc1ccc2nccc(C(O)CC[C@@H]3CCN(C4CC(Oc5ccccc5)C4)C[C@@H]3C(=O)O)c2c1 (stereo partly drawn) [Example 8, (3R,4R)-4-[3-hydroxy-3-(6-methoxyquinolin-4-yl)propyl]-1-(3-phenoxycyclobutyl)piperidine-3-carboxylic acid] |
| 0.5 (≈ 1.02 µM) |  | 0.5 (≈ 1.02 µM) | 0.5 (≈ 1.02 µM) | 16 (≈ 32.7 µM) |  | 1 (≈ 2.05 µM) |  |  |  | COc1ccc2nccc(C(CC[C@@H]3CCN(C4CC(c5ccccc5)C4)C[C@@H]3C(=O)O)OC)c2c1 (stereo partly drawn) [Example 10, (3R,4R)-4-[3-methoxy-3-(6-methoxyquinolin-4-yl)propyl]-1-(3-phenylcyclobutyl)piperidine-3-carboxylic acid] |
| 2 (≈ 4.09 µM) | 1 (≈ 2.05 µM) | 2 (≈ 4.09 µM) | 2 (≈ 4.09 µM) | >64 |  |  |  |  |  | COc1ccc2nccc(C(CC[C@@H]3CCN(C4CC(c5ccccc5)C4)C[C@@H]3C(=O)O)OC)c2c1 (stereo partly drawn) [Example 11, (3R,4R)-4-[3-methoxy-3-(6-methoxyquinolin-4-yl)propyl]-1-(3-phenylcyclobutyl)piperidine-3-carboxylic acid] |
|  |  |  |  | 8 (≈ 16.4 µM) | 2 (≈ 4.09 µM) | 4 (≈ 8.19 µM) | 2 (≈ 4.09 µM) | 2 (≈ 4.09 µM) |  | COc1ccc2nccc(C(O)CC[C@@H]3CCN(C4CC(c5ccccc5)C4)CC3(C)C(=O)O)c2c1 (stereo partly drawn) [Example 12, (4R)-4-[3-hydroxy-3-(6-methoxyquinolin-4-yl)propyl]-3-methyl-1-(3-phenylcyclobutyl) piperidine-3-carboxylic acid] |
| 2 (≈ 4.09 µM) | 4 (≈ 8.19 µM) | 2 (≈ 4.09 µM) | 4 (≈ 8.19 µM) | 32 (≈ 65.5 µM) |  |  |  |  |  | COc1ccc2nccc(C(O)CC[C@@H]3CCN(C4CC(c5ccccc5)C4)CC3(C)C(=O)O)c2c1 (stereo partly drawn) [Example 13, (4R)-4-[3-hydroxy-3-(6-methoxyquinolin-4-yl)propyl]-3-methyl-1-(3-phenylcyclobutyl) piperidine-3-carboxylic acid] |
|  |  |  |  |  | ≤ 0.0625 | ≤ 0.0625 | ≤ 0.0625 | ≤ 0.0625 | 0.5 (≈ 0.946 µM) | COc1ccc2ncc(F)c(C(O)CC[C@@H]3CCN(C4CC(c5c(F)cccc5F)C4)C[C@@H]3C(=O)O)c2c1 (stereo partly drawn) [Example 17, (3R,4R)-1-[3-(2,6-difluorophenyl)cyclobutyl]-4-[3-(3-fluoro-6-methoxyquinolin-4-yl)-3-hydroxypropyl]piperidine-3-carboxylic acid] |
|  |  |  |  |  | 4 (≈ 8.41 µM) | 16 (≈ 33.6 µM) | 4 (≈ 8.41 µM) | 4 (≈ 8.41 µM) | 16 (≈ 33.6 µM) | COc1ccc2nccc(C(O)CC[C@@H]3CCN(C4CC(c5ccccn5)C4)C[C@@H]3C(=O)O)c2c1 (stereo partly drawn) [Example 21, (3R,4R)-4-[3-hydroxy-3-(6-methoxyquinolin-4-yl)propyl]-1-(3-pyridin-2-ylcyclobutyl)piperidine-3-carboxylic acid] |
|  |  |  |  |  | 2 (≈ 4.04 µM) | 4 (≈ 8.07 µM) | 1 (≈ 2.02 µM) | 1 (≈ 2.02 µM) | 8 (≈ 16.1 µM) | COc1ccc2nccc(C(O)CC[C@@H]3CCN(C4CC(c5cc(C)sn5)C4)C[C@@H]3C(=O)O)c2c1 (stereo partly drawn) [Example 22, (3R,4R)-4-[3-hydroxy-3-(6-methoxyquinolin-4-yl)propyl]-1-[3-(5-methylisothiazol-3-yl)cyclobutyl] piperidine-3-carboxylic acid] |
|  |  |  |  |  | ≤ 0.0625 | ≤ 0.0625 | ≤ 0.0625 | ≤ 0.0625 | > 64 | COc1ccc2ncc(F)c(CCCC3(C(=O)O)CCN(C4CC(c5ccccc5)C4)CC3)c2c1 (stereo not shown) [Example 23, 4-[3-(3-fluoro-6-methoxyquinolin-4-yl)propyl]-1-(3-phenylcyclobutyl)piperidine-4-carboxylic acid] |
|  |  |  |  |  | 8 (≈ 16.2 µM) | 16 (≈ 32.5 µM) | 4 (≈ 8.12 µM) | 4 (≈ 8.12 µM) | > 64 | COc1ccc2ncc(F)c(C(O)CCC3(C(=O)O)CCN(C4CC(c5ccccc5)C4)CC3)c2c1 (stereo not shown) [Example 24, 4-[3-(3-fluoro-6-methoxyquinolin-4-yl)-3-hydroxypropyl]-1-(3-phenylcyclobutyl)piperidine-4-carboxylic acid] |
|  |  |  |  |  | 0.25 (≈ 0.491 µM) | 0.5 (≈ 0.982 µM) | 0.25 (≈ 0.491 µM) | 0.25 (≈ 0.491 µM) | 4 (≈ 7.86 µM) | COc1ccc2nccc(C(O)CC[C@@H]3CCN(C4CC(c5cccc(Cl)c5)C4)C[C@@H]3C(=O)O)c2c1 (stereo partly drawn) [Example 29, (3R,4R)-1-[3-(3-chlorophenyl)cyclobutyl]-4-[3-hydroxy-3-(6-methoxyquinolin-4-yl)propyl] piperidine-3-carboxylic acid] |
|  |  |  |  |  | 8 (≈ 14.7 µM) | 4 (≈ 7.37 µM) | 4 (≈ 7.37 µM) | 8 (≈ 14.7 µM) | > 64 | COc1ccc2nccc(C(O)CC[C@@H]3CCN(C4CC(c5ccc(C(F)(F)F)cc5)C4)C[C@@H]3C(=O)O)c2c1 (stereo partly drawn) [Example 30, (3R,4R)-4-[3-hydroxy-3-(6-methoxyquinolin-4-yl)propyl]-1-{3-[4-(trifluoromethyl)phenyl]cyclobutyl} piperidine-3-carboxylic acid] |
|  |  |  |  |  | 32 (≈ 65.2 µM) | 16 (≈ 32.6 µM) | 32 (≈ 65.2 µM) | 32 (≈ 65.2 µM) | > 64 | COc1ccc2nccc(C(O)CC[C@@H]3CCN(C4CC(c5ccc(O)cc5)C4)C[C@@H]3C(=O)O)c2c1 (stereo partly drawn) [Example 31, (3R,4R)-4-[3-hydroxy-3-(6-methoxyquinolin-4-yl)propyl]-1-[3-(4-hydroxyphenyl)cyclobutyl] piperidine-3-carboxylic acid] |
|  |  |  |  |  | 64 (≈ 120 µM) | 64 (≈ 120 µM) | 64 (≈ 120 µM) | > 64 | > 64 | COc1ccc2nccc(C(O)CC[C@@H]3CCN(C4CC(c5ccc(OC)c(OC)c5)C4)C[C@@H]3C(=O)O)c2c1 (stereo partly drawn) [Example 32, (3R,4R)-1-[3-(3,4-dimethoxyphenyl)cyclobutyl]-4-[3-hydroxy-3-(6-methoxyquinolin-4-yl)propyl] piperidine-3-carboxylic acid] |
|  |  |  |  |  | > 64 | > 64 | > 64 | > 64 | > 64 | COc1ccc2nccc(C(O)CC[C@@H]3CCN(C4CC(c5ccc(O)c(OC)c5)C4)C[C@@H]3C(=O)O)c2c1 (stereo partly drawn) [Example 33, (3R,4R)-1-[3-(4-hydroxy-3-methoxyphenyl)cyclobutyl]-4-[3-hydroxy-3-(6-methoxyquinolin-4-yl)propyl]piperidine-3-carboxylic acid] |
|  |  |  |  |  | 0.5 (≈ 1.02 µM) | 1 (≈ 2.05 µM) | 0.5 (≈ 1.02 µM) | 1 (≈ 2.05 µM) | 16 (≈ 32.7 µM) | COc1ccc2nccc(C(O)CC[C@@H]3CCN(C4CC(c5ccccc5C)C4)C[C@@H]3C(=O)O)c2c1 (stereo partly drawn) [Example 34, (3R,4R)-4-[3-hydroxy-3-(6-methoxyquinolin-4-yl)propyl]-1-[3-(2-methylphenyl)cyclobutyl] piperidine-3-carboxylic acid] |
|  |  |  |  |  | 1 (≈ 1.99 µM) | 4 (≈ 7.96 µM) | 1 (≈ 1.99 µM) | 1 (≈ 1.99 µM) | 64 (≈ 127 µM) | COc1ccc2nccc(C(O)CC[C@@H]3CCN(C4CC(c5c(C)cccc5C)C4)C[C@@H]3C(=O)O)c2c1 (stereo partly drawn) [Example 35, (3R,4R)-1-[3-(2,6-dimethylphenyl)cyclobutyl]-4-[3-hydroxy-3-(6-methoxyquinolin-4-yl)propyl] piperidine-3-carboxylic acid] |
